Assay results as given in PubChem BioAssay (NCI).
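96-well plates; 48 h exposure; 5 concentrations. Endpoints by linear interpolation between flanking doses. Not reached: highest tested concentration assigned. TGI denotes the concentration required for complete inhibition of growth.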

Assays:
Test in all cases: NCI-60 cell line screen, 48 h
ACHN renal = test system: ACHN renal
EKVX NSCLC = test system: EKVX NSCLC
HOP-62 NSCLC = test system: HOP-62 NSCLC
HOP-92 NSCLC = test system: HOP-92 NSCLC
MDA-N = test system: MDA-N
NCI-H460 lung = test system: NCI-H460 lung
NCI-H522 lung = test system: NCI-H522 lung
OVCAR-3 ovarian = test system: OVCAR-3 ovarian
OVCAR-4 ovarian = test system: OVCAR-4 ovarian
SF-295 CNS = test system: SF-295 CNS
SF-539 CNS = test system: SF-539 CNS
T-47D breast = test system: T-47D breast

Compound	TGI (ACHN renal) [µM]	TGI (EKVX NSCLC) [µM]	TGI (HOP-62 NSCLC) [µM]	TGI (HOP-92 NSCLC) [µM]	TGI (MDA-N) [µM]	TGI (NCI-H460 lung) [µM]	TGI (NCI-H522 lung) [µM]	TGI (OVCAR-3 ovarian) [µM]	TGI (OVCAR-4 ovarian) [µM]	TGI (SF-295 CNS) [µM]	TGI (SF-539 CNS) [µM]	TGI (T-47D breast) [µM]
Cn1c(=O)c2c(no[n+]2[O-])c2ccccc21	83	46.1	35.9	52.2	87.2	35.3	27.8	48.4	45.5	61.1	> 100	68.3
Cc1cc(OCc2nnc3n2N=C(c2cc(F)c(Cl)cc2Cl)/C(=C/c2ccc(Cl)cc2)S3)ccc1Cl	> 100	> 100	> 100	45.8	> 100	> 100	36.4	> 100	59.8	> 100	> 100	> 100
S=c1[nH]n2c(COc3cccc(OCc4nnc5sc(=S)[nH]n45)c3)nnc2s1	> 100	> 100	> 100	> 100	> 100	> 100	> 100	> 100	> 100	> 100	> 100	> 100
Cc1c(O)c(C)c2c(C)cn(C(=O)C(C)(C)C)c2c1C	35.3	49.7	31.7	17.5	38.8	63.8	56.2	> 100	27	32.9	30	90
CCOP(=O)(O)C(C)(C)NC	> 100	> 100	> 100	> 100	> 100	> 100	> 100	> 100	> 100	> 100	> 100	> 100
O=[N+]([O-])c1cc2c(c3nonc13)OCCCCO2	19.6	38.5	16.2	26.3	16.4	14	17.4	7.53	27.4	31.6	7.27	60.5
COc1ccc(C(OC(C)=O)C2C(=C(C#N)C#N)c3ccccc3C2=C(C#N)C#N)cc1 (stereo unspecified)	> 100	> 100	62.6	> 100	> 100	> 100	> 100	50.6	> 100	64.6	49.7	> 100
CCOC(=O)C1=C(N)Oc2ccc(Br)cc2C1C(C#N)C(=O)OCC (stereo unspecified)	33.6	> 100	> 100	37	54.9	> 100	34.6	39.7	44.8	> 100	40.3	53.1
CCCCn1c(C)c2c(c1C)C(=O)N(CC(O)CN1CCc3ccccc3C1)C2=O (stereo unspecified)	> 100	> 100	> 100	> 100	> 100	> 100	> 100	> 100	> 100	> 100	> 100	> 100
CN1CCN(CN2C(=O)C3C4C=CC(C3C2=O)C2C(=O)N(CN3CCN(C)CC3)C(=O)C42)CC1 (stereo unspecified)	> 100	> 100	> 87.3	> 100	> 100	> 93.6	> 59.5	> 100	> 100	> 100	> 83.3	> 100
CC(NNC(=O)CC(=O)N(C(=O)c1ccccc1)c1ccc(Cl)cc1)c1cc2ccccc2oc1=O (stereo unspecified)	> 10	> 10	> 10	> 10	> 10	> 10	> 10	> 10	> 10	> 10	> 10	> 10
CCCCCC(/C=C/C1CCC(=O)C1CC#C[Si](C)(C)C)OCc1ccccc1 (stereo unspecified)	31.6	39.8	41.5	17.2	42.6	30.7	28.6	39.1	> 71.8	39.8	46.2	85.1
COc1ccc(CN(Cc2ccc(OC)cc2)C(=O)CC2(O)C=CCC2)cc1 (stereo unspecified)	> 100	> 100	> 100	> 100	> 100	> 100	> 100	> 100	> 100	> 100	> 100	> 100
CCO/C=N/NC(=O)CSc1nc2ccc(I)cc2c(=O)n1Cc1ccccc1	> 100	> 100	> 100	> 100	> 100	> 100	13.3	> 100	> 100	> 100	> 100	> 100
COc1ccc(OC)c(C2Cc3cnc4nc(N)nc(N)c4c3C2)c1 (stereo unspecified)	> 100	> 100	> 100	53.8	83.7	73.6	64.3	41.6	53.8	93.7	28	65.5
CC(C)(C)C(=O)OC(N)/C=C/c1ccccc1 (stereo unspecified)	> 100	> 100	> 100	> 100	> 100	> 100	> 100	> 100	> 100	> 100	> 100	> 100
CCOC(=O)NC1CN2CCC1CC2 (stereo unspecified)	> 100	> 100	> 100	> 100	> 100	> 100	> 100	> 100	> 100	> 100	> 100	> 100
O=[N+]([O-])c1ccc(S(=O)(=O)N=Ic2ccccc2)cc1	> 100	> 100	> 100	> 100	> 100	> 100	> 100	> 100	> 100	> 100	> 100	> 100
O=C1NN=C2C=C(c3ccc(Cl)cc3)CC(c3cccc(Cl)c3)C12 (stereo unspecified)	48.2	64.7	> 100	50.9	65.3	47.2	42.8	> 100	66.5	38.4	55.7	> 100
COc1cc(C2SCC(=O)N2c2ccc(Cl)c(Cl)c2)cc(OC)c1OC (stereo unspecified)	> 100	> 87.9	> 100	> 100	45.9	> 100	> 100	> 100	> 100	> 100	> 100	> 63.6
O=C(c1cc(Cl)cc(Cl)c1)N1CCN(C(=O)c2cc(Cl)cc(Cl)c2)C1=S	29.6	31.9	33.8	22.4	34.5	37.2	25.7	26.9	38.4	44.7	22.7	45.2
O=c1c2c(-c3ccccc3)onc2n(-c2ccccc2)c(=O)n1-c1ccccc1	> 100	59.5	54.9	> 100	> 100	36.8	33.2	38.6	> 100	> 100	> 100	> 100
O=C(O)c1cccnc1	> 100	> 100	> 100	> 100	> 100	> 100	> 100	> 100	> 100	> 100	> 100	> 100
